Assays:
Format in all cases: in vivo, mouse
leptin = test: Expression of leptin in white adipocytes of mice i.c.v. administered with NPY Y5 agonist; conditions: 5 μg/day i.c.v., non-treated C57BL/6N set to 1
MCP-1 = test: Expression of MCP-1 in white adipocytes of mice i.c.v. administered with NPY Y5 agonist (TaqMan PCR); conditions: 5 μg/day i.c.v., non-treated C57BL/6N set to 1
Description: Model mice displaying obesity were constructed by the administration of NPY Y5 agonist in the manner described below.
Male mice (9-12 weeks old) (C57BL/6J, CLEA, Inc.) were bred at one animal per plastic cage under the conditions of: room temperature 23±2° C.; and humidity 55±15%. The light-dark cycle during breeding period was set to be 12 hours and the light was put on at 7 a.m. and turned off at 7 p.m. Mice were allowed access to ad lib feed (CE-2 (protein: 25.4 wt. %; carbohydrate: 50.3 wt. %; lipid: 4.4 wt. %), CLEA, Inc.) and water.
Mice were anesthetized with 80 mg/kg of sodium pentobarbital (Dinabott Inc.) and were locally implanted with sterilized 28-gage brain fusion cannulas (Alzet) at their right cerebral ventricles. The cannula was fixed vertically relative to the cranical bone at the position 0.4 mm behind and 0.8 mm side of the bregma and 2 mm deep. The cannula was fixed to the ventricle with dental cement. The cannula was connected to an osmotic pump (model no. 2002 manufactured by Alzet) filled with 10 mM phosphate buffer containing 0.05% bovine serum albumin via a polyvinylchloride tube. […]
The quantitative analysis of the expression amount of MCP-1 was performed by TaqMan PCR, using cDNA obtained from the white adipocytes according to RT-PCR. […]

[1] = tested on: CD11b positive blood cells (monocytes/macrophages); test: Expression analysis of CD11b by flow cytometry in mice administered with MCP-1; conditions: subcutaneous infusion by osmotic pump, 10 ng/0.5 μl/hr over 2 weeks; versus saline-administered control mice; FIG. 10(d)-(f)
Description: The analysis using flow cytometry was performed to study how the count of CD11b, which was a surface antigen of macrophages, or blood monocytes would vary upon administration of MCP-1.
Mice were first subcutaneously infused with. MCP-1, using an osmotic pump, at the rate of 10 ng/0.5 μl/hr over 2 weeks. Next, blood was collected from the tail veins of the control mice (C57BL/6), the DIO mice and the MCP-1 treated mice, respectively, using a heparinized capillary. After blood cells were collected from the blood by centrifugation at 300×g for 5 minutes, they were incubated with the FITC-labeled anti-mouse CD11b antibody (BD Biosciences) at room temperature for 15 minutes. The samples were incubated with the IgG2b isotype to serve as a non-specific binding control. After washing these cells with PBS, erythrocytes were lyzed with a lysis buffer at room temperature for 5 minutes. After washing the cells with PBS, the cells were suspended in PBS containing 0.5% formaldehyde. Flow cytometry was performed on this suspension, using an EPCIS Elite Flow Cytometer (Beckman Coulter, Inc.), to identify monocytes. Here, the analysis by flow cytometry was carried out by determining the population of monocytes/macrophages in the whole blood cells. In the flow cytometry 40,000 cells per each sample were analyzed with the fluorescence and scattered light as indices. […]

Substance | Expression amount of leptin (leptin; Y5 agonist FF (ad lib fed)) | Expression amount of leptin (leptin; Y5 agonist PF (pair feeding)) | Expression amount of MCP-1 (MCP-1; Y5 agonist FF (ad lib fed)) | Expression amount of MCP-1 (MCP-1; Y5 agonist PF (pair feeding)) | CD11b positive blood cell count [1]
D-Try^34 NPY [Y5 agonist] | 3.53 | 1.77 | 7.67 | 5.16 | 
MCP-1: monocyte chemotaxis factor protein of the CC chemokine subfamily, subcutaneously infused into mice |  |  |  |  | increases

— US7510833B2, “Method for examining obesity or leanness” (Banyu Pharmaceutical Co., Ltd., priority 2003, dated 2009)
